Measured values published in patent US20220096503A1, “COMBINATION PHARMACEUTICAL COMPOSITIONS AND METHODS THEREOF” (University of Washington, priority 2019, published 2022).
Where two headings read alike, the source gives them in different places.

Tests used:
[1] = Conventional dosage form LPV/RTV, oral administration, non-human primates (Example 4); assay type: in vivo; details: non-human primates vs humans
From the text: AUC (area under the curve, or total drug exposure) of the active drug lopinavir was dose normalized across species and route of administration by dividing the total exposure by the dose administered (μg*hr*kg/(mL*mg)). Dashes represent unreported data. Apparent half-life is reported in hours.

[2] = Non-human Primates, SC; cited from earlier work
[3] = Human, IV; cited from earlier work

| total AUC of lopinavir (PO) in non-human primates, fold lower than humans [1] | Structure (SMILES) | AUC (dose normalized) [2] | T1/2, app [2] | AUC (dose normalized) [3] | T1/2, app [3] |
| --- | --- | --- | --- | --- | --- |
| 10 fold | Cc1cccc(C)c1OCC(=O)N[C@@H](Cc1ccccc1)[C@@H](O)C[C@H](Cc1ccccc1)NC(=O)[C@H](C(C)C)N1CCCNC1=O [lopinavir] |  |  |  |  |
|  | C[C@H](Cn1cnc2c(N)ncnc21)OCP(=O)(O)O [TFV, tenofovir] | 2.1 µg·kg·h/mL/mg | 8 h | 5.6 µg·kg·h/mL/mg | 6.6 h |
